Test results taken from US20220275376A1, “TARGETING SLC38A2 IN PANCREATIC CANCER” (New York University, priority 2019, published 2022).

How the values were obtained:
HY19636 cells = test: Intracellular amino acid levels in SLC38A2-deficient HY19636 cells after alanine supplementation; assay type: cell-based, mouse; conditions: SLC38A2-deficient (sgSlc38a2 #1) HY19636 cells, 1 mM, 24 hours
Protocol: (A) Serine, glycine, proline, and glutamate extracellular fluxes in SLC38A2-deficient (sgSLC38A2 #1, #3) and control (sgTom) HY19636, MiaPaCa2, and PANC1 cells cultured in DMEM. Extracellular accumulation (+, secretion) or depletion (−, uptake) was measured in conditioned media over 24 hours and normalized to the viable cell density over the time course. Error bars depict s.d. of three independent experiments. (B) Essential amino acid (leucine, isoleucine, valine, threonine) uptake fluxes in SLC38A2-deficient (sgSLC38A2 #1, #3) and control (sgTom) HY19636, MiaPaCa2, and PANC1 cells cultured in DMEM for 24 hours. Error bars depict s.d. of three independent experiments. […] Data presented as a percent change for each amino acid relative to that measured in DMEM conditions. […]
For ^13C- and ^15N-labeled alanine tracing experiments, cells were plated into 6-well plates at 250,000 cells/well and allowed to attach overnight. […] Fatty acid labeling from ^13C3-alanine was measured by transferring 400 μL of the inorganic layer to a glass vial and evaporating under nitrogen flow in a needle evaporator prior to transesterification and GC-MS analysis. To quantify contribution to proteogenic amino acid pools, the insoluble interphase layer containing proteins was washed three times with HPLC-grade acetone and allowed to dry overnight with gentle nitrogen flow in a needle evaporator. […]

8988T cells = test: Alanine uptake from culture media conditioned by 8988T cells; assay type: cell-based; conditions: 10 μM, vs vehicle (DMSO), up to 96 hours
Protocol: (A) Alanine levels in culture media conditioned by 8988T cells treated with vehicle (DMSO) or fluvoxamine (FVX, 10 μM) over time. (B) Alanine uptake flux by 8988T cells treated with vehicle (DMSO) or fluvoxamine (FVX, 10 μM) for 96 hours. Data were normalized to cell growth over the treatment period. (C) Glutamine levels in culture media conditioned by 8988T cells treated with vehicle (DMSO) or fluvoxamine (FVX, 10 μM) over time. (D) Absolute values for amino acid uptake or secretion flux by 8988T cells treated with vehicle (DMSO) or fluvoxamine (FVX, 10 μM) for 96 hours. Data were normalized to cell growth over the treatment period.
Fluvoxamine (FVX), fluoxetine (FLX), paroxetine (PXT), sertindole (SND), and blonanserin (BNS) were acquired from Cayman Chemicals. Desipramine (DPM), α-(Methylamino) isobutyric acid (MeAIB), and L-alanine were acquired from Sigma. Stocks were prepared at 10 mM or 7.5 mM (BNS) in DMSO. Cells were treated with vehicle (DMSO) or varying concentrations of drug for indicated time. Conditioned media was collected and centrifuged at 1,000×g to remove cell debris followed by extraction of metabolites. For metabolite extraction, cells were first washed with ice cold 0.9% NaCl to remove media contamination followed by addition of 500 μL methanol (−20° C.) and 200 μL HPLC grade water (4° C.). […]

SLC38A2 = target: T1, SLC38A2 (Homo sapiens, UniProt Q96QD8); test: SLC38A2 activity measured by MeAIB uptake in HY15549 dox-inducible SNAT2 cells; assay type: cell-based; conditions: 20 μm compound, MeAIB 0.3 mM, 1 hour, vs vehicle (PBS), HY15549 cells expressing dox-inducible SLC38A2/SNAT2
T1 construct: expressed in transfected cells; host or cells: HY15549 cells with dox-inducible SNAT2
T1 sequence (Q96QD8 1-506): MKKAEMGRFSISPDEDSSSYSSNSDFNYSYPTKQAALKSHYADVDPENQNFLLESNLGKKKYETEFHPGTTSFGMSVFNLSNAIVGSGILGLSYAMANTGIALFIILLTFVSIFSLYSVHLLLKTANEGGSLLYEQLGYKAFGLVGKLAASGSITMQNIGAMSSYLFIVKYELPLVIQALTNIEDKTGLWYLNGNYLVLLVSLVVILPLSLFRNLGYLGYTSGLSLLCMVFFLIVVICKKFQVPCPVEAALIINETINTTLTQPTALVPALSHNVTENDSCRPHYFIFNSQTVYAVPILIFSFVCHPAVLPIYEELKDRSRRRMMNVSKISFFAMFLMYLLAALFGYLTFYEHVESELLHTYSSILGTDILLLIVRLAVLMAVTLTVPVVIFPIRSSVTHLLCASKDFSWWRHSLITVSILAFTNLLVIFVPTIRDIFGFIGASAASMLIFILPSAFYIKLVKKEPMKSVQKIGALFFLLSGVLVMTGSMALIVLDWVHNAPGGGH
Protocol: (A) Schematic depicting SLC38A2-dependent update of alanine structural analog, methyl α-aminoisobutyrate (MeAIB). […] (B) Total ion chromatogram (TIC) of HY15549 dox-inducible SNAT2 cells treated with 1 mM MeAIB for 24 hours compared to vehicle (PBS). […] HY15549 dox-inducible SNAT2 cells were cultured with a concentration gradient of MeAIB for 15 minutes (gray circles) or 60 minutes (black squares). (D) Western blot depicting SLC38A2 expression relative to doxycycline after 24 hours culture in HY15549 dox-inducible SNAT2 cells. (E) Intracellular MeAIB levels in HY15549 dox-inducible cells cultured with dox (+SNAT2, left bar) and without dox (KO, right bar) for 24 hours with 1 mM MeAIB. (F) Intracellular MeAIB levels in HY15549 dox-inducible cells cultured with vehicle, paroxetine (PXT, 20 μM), or sertraline (SRT, 20 μm) for 24 hours with 300 μM MeAIB.

Row | inhibition of MeAIB uptake (intracellular MeAIB levels) (SLC38A2) | Structure (SMILES) | rescue of amino acid defect (change in intracellular amino acids relative to DMEM) (HY19636 cells) | alanine uptake in PDAC cells (8988T cells)
1 |  | C[C@H](N)C(=O)OC(C)(C)C [L-alanine tert-butyl ester] | failed to rescue amino acid defect | 
2 |  | C[C@H](N)C(=O)O [L-alanine] | failed to rescue amino acid defect | 
3 | inhibited | COCCCC/C(=N\OCCN)c1ccc(C(F)(F)F)cc1 [fluvoxamine] |  | significantly and specifically inhibits alanine uptake
